Consider three molecules from patent US20220241416A1, “METHODS FOR THE IDENTIFICATION OF SARM1 NADASE ACTIVITY INHIBITORS AND USES THEREOF” (Bar Ilan University, priority 2021, published 2022).

Where two headings read alike, the source gives them in different places.

One experiment addresses T1, hSARM1 (Homo sapiens, UniProt Q6SZW1).
T1 construct: hSARM1w.t; (26ERL . . . GPT724) that was not mutated in E642, was also expressed and isolated; 6xHis (N); TEV cleavage site (N); made in house; host or cells: HEK293F suspension cells
T1 sequence (Q6SZW1 with tags, fused parts or gaps): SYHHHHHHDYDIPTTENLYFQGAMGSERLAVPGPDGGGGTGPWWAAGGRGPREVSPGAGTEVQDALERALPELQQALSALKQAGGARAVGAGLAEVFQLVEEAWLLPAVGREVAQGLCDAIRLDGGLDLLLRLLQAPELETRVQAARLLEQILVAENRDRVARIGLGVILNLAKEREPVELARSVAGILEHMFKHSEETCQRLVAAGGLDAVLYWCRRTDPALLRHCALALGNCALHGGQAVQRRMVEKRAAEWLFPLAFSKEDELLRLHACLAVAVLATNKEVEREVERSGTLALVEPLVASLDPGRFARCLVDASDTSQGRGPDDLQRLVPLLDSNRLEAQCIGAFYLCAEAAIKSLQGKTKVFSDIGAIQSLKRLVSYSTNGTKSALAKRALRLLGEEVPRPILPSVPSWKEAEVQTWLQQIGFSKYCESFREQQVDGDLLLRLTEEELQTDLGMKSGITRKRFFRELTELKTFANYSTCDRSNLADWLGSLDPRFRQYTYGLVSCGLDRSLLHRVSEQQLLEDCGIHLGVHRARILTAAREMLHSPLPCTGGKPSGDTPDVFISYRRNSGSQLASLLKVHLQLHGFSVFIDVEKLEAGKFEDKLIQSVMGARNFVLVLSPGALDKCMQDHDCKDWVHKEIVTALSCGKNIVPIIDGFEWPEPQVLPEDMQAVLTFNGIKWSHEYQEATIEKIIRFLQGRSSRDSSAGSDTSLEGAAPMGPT
Put plainly: In vitro hSARM1 NADase activity, Resasurin assay. The format is biochemical. Here is the method:
For quantitation of hSARM1 NADase activity and the inhibitory effect of selected compounds (FIG. 6F; FIG. 7A-7B), purified hSARM1w.t. and hSARM1E642Q proteins were first diluted to 400 nM concentration in 25 mM HEPES pH 7.5, 150 mM NaCl, and then mixed in 25° C. with 1 uM of NAD+(in the same buffer) with a 1:1 v/v ratio. All inhibitors were diluted with the same buffer, and the pH values were measured and if necessary titrated to 7.5. Inhibitors were pre-incubated for 20 min with hSARM1 in 25° C. before mixing with NAD+. At designated time points, reactions were quenched by placing the reaction tubes in 95° C. for 2 min. Measurement of NAD+ concentrations was made by a modified enzymatic coupled cycling assay (K. S. Kanamori et al., NAD. Bio Protoc 8, (2018)). The reaction mix, which includes 100 mM Phosphate buffer pH=8, 0.78% ethanol, 4 uM FMN (Riboflavin 5′-monophosphate sodium salt hydrate), 27.2 U/ml Alcohol dehydrogenase (SIGMA), 1.8 U/ml Diaphorase (SIGMA) and freshly dissolved (in DDW) 8 uM Resasurin (SIGMA), was added to each sample at 1:1 (v/v) ratio and then transferred to 384-well black plate (Corning). Fluorescent data was measured using a SynergyHI (BioTek) plate reader at 554-nm excitation and 593-nm emission wavelengths. Standard curve equation for calculation of NAD+ concentration was created for each assay from constant NAD+ concentrations.

The next experiment deals with T2, zfSARM1 (Danio rerio, UniProt F1QWA8).
T2 sequence (F1QWA8 1-713): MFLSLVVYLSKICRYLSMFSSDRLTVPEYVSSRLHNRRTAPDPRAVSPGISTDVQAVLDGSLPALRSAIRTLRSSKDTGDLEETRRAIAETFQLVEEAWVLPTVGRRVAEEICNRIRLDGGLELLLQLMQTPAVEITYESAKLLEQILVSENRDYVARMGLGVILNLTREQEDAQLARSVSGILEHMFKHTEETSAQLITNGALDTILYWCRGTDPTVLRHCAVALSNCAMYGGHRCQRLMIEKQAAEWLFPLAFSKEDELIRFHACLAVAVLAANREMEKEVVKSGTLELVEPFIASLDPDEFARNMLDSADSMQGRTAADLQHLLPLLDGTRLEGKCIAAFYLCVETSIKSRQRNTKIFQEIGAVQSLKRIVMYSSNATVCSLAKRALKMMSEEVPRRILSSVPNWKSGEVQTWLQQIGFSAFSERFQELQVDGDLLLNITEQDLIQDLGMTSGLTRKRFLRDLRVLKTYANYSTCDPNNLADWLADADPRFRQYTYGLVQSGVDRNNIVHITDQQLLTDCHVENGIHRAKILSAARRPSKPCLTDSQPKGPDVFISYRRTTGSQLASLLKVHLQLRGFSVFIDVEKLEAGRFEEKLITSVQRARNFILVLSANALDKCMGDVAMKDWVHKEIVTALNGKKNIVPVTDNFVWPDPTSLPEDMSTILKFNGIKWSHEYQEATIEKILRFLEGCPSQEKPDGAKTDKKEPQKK
Kind of experiment: Kinetic parameters of zfSARM1, substrate inhibition fit. The format is biochemical, Zebrafish. Here is the method: FIG. 14C. […] The kinetic parameters were determined from plots of reaction velocity of NAD+ consumption versus substrate (NAD+) concentration and then fitted to the Michaelis-Menten equation (Km and Vmax) or substrate inhibition equation (Ki) using non-linear curve fit in GraphPad Prism. Kcat was calculated by dividing the Vmax with protein molar concentration.
For Vmax and Km determination, the NADase activity assay was performed with several different NAD+ substrate concentrations and sampled in constant time points. For each NAD+ concentration, linear increase zone was taken for slope (V0) calculation. All data were than fitted to the Michaelis-Menten equation using non-linear curve fit in GraphPad Prism software. Kcat was calculated by dividing the Vmax with protein molar concentration.

`Nc1ncnc2c1ncn2[C@@H]1O[C@H](COP(=O)(O)OP(=O)(O)OP(=O)(O)O)[C@@H](O)[C@H]1O` [ATP]: on hSARM1 (analyzed as for glycerol, FIG. 7A), the “inhibition of hSARM1 NADase activity” value is reported as “inhibits the NADase activity of hSARM1 in a dose-dependent manner”.

Take `NC(=O)c1ccc[n+]([C@@H]2O[C@H](COP(=O)([O-])OP(=O)(O)OC[C@H]3O[C@@H](n4cnc5c(N)ncnc54)[C@H](O)[C@@H]3O)[C@@H](O)[C@H]2O)c1` [NAD+, Nicotinamide adenine dinucleotide]: the Ki on zfSARM1 (apparent inhibition by substrate, read-out: Ki for NAD+, zfSARM1) worked out at 1350 µM; at zfSARM1 (substrate inhibition equation, read-out: Ki, inhibition by the substrate NAD+, zfSARM1) it was 1300 µM.

With `OCC(O)CO` [glycerol], the “inhibition of hSARM1 NADase activity” value at hSARM1 (15% glycerol, measured 20 minutes after adding 0.5 μM NAD+) turned out to be 72%.
